Reference: patent US8138188B2, “Melanocortin type 4 receptor agonist piperidinoylpyrrolidines” (Pfizer Inc., priority 2006, dated 2012)

Key:
[1] = biological target: MC4 receptor (Homo sapiens, UniProt P32245); test: MC4 functional agonist potency (EC50), assay protocol E of US2005/0176772 / WO 2005/077935; format: cell-based; conditions: functional potency at the MC4 receptor
Procedure: The compounds of formula (I) of the present invention have utility as MCR4 agonists in the treatment of various disease states.
MC5 and MC4 EC50 activity was determined as described by assay protocols D and E, respectively, in US2005/0176772 (pages 28-30).

[2] = biological target: T1, human MC3 receptor (Homo sapiens, UniProt P41968); test: In vitro agonist potency (EC50) against melanocortin receptor type 3, cAMP in recombinant cell line; format: cell-based; conditions: cell line stably transfected with human MC3, 1 hour at 37° C.
T1 construct: stably transfected with full length cDNA encoding human MC1 or MC3 receptors; expressed in transfected cells; host or cells: Chinese hamster ovary cell line (MC3; 'respectively')
Procedure: Measurement of In Vitro Agonist Potency (EC50) of Compounds Against Melanocortin Receptors Type 1 and 3 (MC1 and MC3).
Activation of melanocortin (MC) receptors by agonists results in activation of intracellular adenylate cyclase enzymes that synthesise the second messenger signalling molecule, adenosine 3′,5′-cyclic monophosphate (cAMP). Changes in cAMP levels following treatment of recombinant MC1 and MC3 cell lines with test compound were measured and an MC1 and MC3 potency estimate (EC50) calculated as follows: […]
Human embryonic kidney (HEK) or Chinese hamster ovary cell lines stably transfected with full length cDNA encoding human MC1 or MC3 receptors, respectively, were established using standard molecular biology methods. Test compounds were dissolved in dimethyl sulfoxide (DMSO) at 4 mM. 11 point half log unit increment dilution series of test compound, typically starting at 50 uM were prepared in a buffer comprised of phosphate buffered saline (PBS), 2.5% DMSO and 0.05% pluronic F-127 surfactant. Freshly cultured cells at 80-90% confluence were harvested and re-suspended in Dulbecco's Modified Eagle's Medium (DMEM). Cells (10,000 for MC3, 20,000 for MC1) were added to the test compound dilution series in a 384 well assay plate and incubated for 1 hour at 37° C. The relative cAMP concentration in each well was then measured using a β-galactosidase enzyme fragment complementation method purchased in kit form as the Discoverx cAMP II kit from GE Healthcare/Amersham Biosciences UK. In the case of MC1,3-Isobutyl-1-methylxanthine (IBMX) at a concentration of 750 μM was included in DMEM as the cells were re-suspended for assay. […] Sigmoidal curves were fitted to plots of log10 inhibitor concentration vs percent effect using a custom made software application called SIGHTS and EC50 estimates determined by the software as the concentration of test compound giving an effect half way between the bottom and top assymptopes of the sigmoidal dose response curve. Each experiment included an EC50 determination for alpha melanocyte stimulating hormone, which was used as a standard to track assay consistency and allow fair comparison between EC50 estimates obtained in different experiments.

[3] = In vitro metabolism rate determination, human liver microsome (HLM) assay; format: in vitro ADME; conditions: human liver microsomes, substrate 1 μM; read-out: HLM (intrinsic clearance)
From the text: In vitro Metabolism Rate Determination (Human Liver Microsome (HLM); Rat Liver Microsome (RLM) Assay)
Many drugs are metabolised by the cytochrome P450 mono-oxygenase system. This enzyme is found in high concentrations in the liver and is bound to the endoplasmic reticulum of the hepatocyte. The enzyme system can be obtained in semi-purified state by the preparation of the hepatic microsomal fractions. Determining a compound's in vitro half-life in such a system provides a useful indicator of metabolic stability.
Methodology For In Vitro Rate Determination Using Hepatic & Supermix Microsomes
The method outlined below is for a total incubation volume of 1.5 ml.
1. The following mixture is prepared in a test tube:
2. Defrost microsomes at room temperature and add sufficient microsomes to give a final concentration of 0.5 nmol cytochrome P450/ml of incubation e.g. for a 1.5 ml incubation, the volume of microsomes to be added is:
[formula] 3. Add sufficient MilliQ water to give a total incubation volume of 1.425 ml. 4. Remove 237.5 μl of incubation mix and place in test tube for PNA positive control. Add 2.5 μl of PNA solution, whirlimix, and put tube into a rack in the thermostatically controlled shaking water bath 5. Remove 100 μl for no substrate control and dispense in test tube. Place test tube in a rack in the thermostatically controlled shaking water bath. 6. Add substrate to the incubation. The substrate should be at an initial concentration of 1 μM. The volume of substrate required in the remaining 1.162.5 ml incubation is calculated as follows:
[formula] • N.B. The volume of organic solvent added should not exceed 0.1% of the total incubation volume. 7. Remove 100 μl of incubation mix into test tube for no cofactor control. Whirlimix and put into a rack in the thermostatically controlled shaking water bath. 8. Pre-incubate the tube containing the incubation mix, also positive control and no cofactor tubes in the thermostatically controlled shaking water bath set at 37° C. for approx 5 min. 9. Add NADP to initiate reaction (75 μl to each 1.162.5 ml incubation mix, 12.5 μl to positive control tube and 5 μl to no substrate tube) and take first time point immediately. The PNA positive control, no cofactor control and no substrate tubes are incubated for the total incubation time. 10. Remove 100 μl aliquots up to 9 different sampling points from 0 to 60 min (usually 0, 3, 5, 10, 15, 20, 30, 45 & 60 min) and terminate reaction. Longer incubation times can be used, but, after 120 min the microsomes deteriorate. The reaction may be terminated by addition of organic solvent, acid or base. At the end of the incubation process the no cofactor and no substrate controls in a similar manner i.e. terminate with the same reagent. 11. PNA Positive Control Procedure: • After the final sample has been taken, remove the positive control and add 1 ml 20% TCA to this tube. Also prepare a tube containing 250 μl of a PNP standard at 50 μM, and add 1 ml 20% TCA. Whirlimix both tubes and leave for approx 5 min to allow the protein to precipitate. • Centrifuge both tubes for approx 5 min in an instrument set at 3500 rpm. Remove 1 ml of supernatant and place into clean test tubes, discard the remainder. • Add 1 ml 10M NaOH to the supernatant, whirlimix, and leave to stand for approx min. Blank spectrophotometer with distilled water at 400 nm then measure absorbance of the PNP standard against distilled water. The microsomal 4-nitroanisole O-demethylase activity is calculated as follows: Calculation of Results
[formula] • The activity value from the incubation MUST be equal to or greater than 85% of the mean value of the batch used for the incubation to be valid. If this criteria is not met, then the incubation must be repeated. 11. Analyse samples (including no cofactor and no substrate control) by a specific assay for the substrate to determine the disappearance kinetics. Analysis Of Data […]

MC4 receptor, sequence (P32245 whole entry): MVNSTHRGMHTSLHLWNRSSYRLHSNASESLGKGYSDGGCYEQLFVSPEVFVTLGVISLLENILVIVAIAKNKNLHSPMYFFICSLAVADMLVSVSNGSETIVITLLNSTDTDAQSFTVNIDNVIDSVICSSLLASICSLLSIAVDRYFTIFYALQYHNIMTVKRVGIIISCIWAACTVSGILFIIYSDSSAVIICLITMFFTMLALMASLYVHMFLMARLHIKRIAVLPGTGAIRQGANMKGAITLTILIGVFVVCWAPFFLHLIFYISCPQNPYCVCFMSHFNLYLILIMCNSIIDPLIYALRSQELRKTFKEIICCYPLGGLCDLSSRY
T1 sequence (P41968 whole entry): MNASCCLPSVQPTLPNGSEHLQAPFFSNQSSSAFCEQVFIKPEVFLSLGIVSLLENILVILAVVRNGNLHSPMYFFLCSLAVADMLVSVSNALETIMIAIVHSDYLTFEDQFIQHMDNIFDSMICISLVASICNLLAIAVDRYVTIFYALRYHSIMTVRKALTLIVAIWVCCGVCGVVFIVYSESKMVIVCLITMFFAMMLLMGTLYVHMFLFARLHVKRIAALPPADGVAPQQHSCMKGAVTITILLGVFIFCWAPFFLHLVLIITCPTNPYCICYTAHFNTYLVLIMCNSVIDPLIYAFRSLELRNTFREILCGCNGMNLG

Structure (SMILES) | EC50 [1] [nM] | EC50 [2] [nM] | microsomal CLint at 1 μM [3] [µL/min/mg]
CC1CN(C(=O)C2CN(c3cncc(F)c3)CC2c2ccc(Cl)cn2)CC(C)C1(O)C1CC1 (stereo not drawn) [Example 24] | 59.3 | 2510 | 355
CC1CN(C(=O)C2CN(c3cncc(F)c3)CC2c2ccc(Cl)cn2)CC(C)C1(O)c1ccc(F)cc1 (stereo not drawn) [Example 25] | 12.4 | 189 | 308
COc1ccc(N2CC(C(=O)N3CC(C)C(O)(C4CC4)C(C)C3)C(c3ccc(Cl)cn3)C2)nn1 (stereo not drawn) [Example 26] | 22.5 | 4210 | 70
C[C@@H]1CN(C(=O)[C@@H]2CN(c3ccc(C#N)nn3)C[C@H]2c2ccc(F)cn2)C[C@H](C)[C@@]1(O)c1ccc(Cl)cc1 [Example 32] | 8.78 | 76.6 | 8
CC1CN(C(=O)C2CN(c3ccc(C#N)nn3)CC2c2ccc(F)cn2)CC(C)C1(O)c1ccccc1 (stereo not drawn) [Example 33] | 13.4 | 193 | 186
C[C@@H]1CN(C(=O)[C@@H]2CN(c3ccc(Cl)nn3)C[C@H]2c2ccc(F)cn2)C[C@H](C)[C@@]1(O)c1ccccc1 [Example 35] | 62.2 | 878 | 100
CC1CN(C(=O)C2CN(c3ccc(=O)n(C)n3)CC2c2ccc(F)cn2)CC(C)C1(O)c1ccc(F)cc1 (stereo not drawn) [Example 40] | 69.8 | 580 | < 7
COc1ccc([C@@H]2CN(c3ccc(C#N)nn3)C[C@H]2C(=O)N2C[C@@H](C)[C@](O)(c3ccc(F)cc3)[C@@H](C)C2)nc1 [Example 43] | 49.3 | 1590 | 37
CC1CN(C(=O)C2CN(c3ccc(C#N)cn3)CC2c2ccc(C#N)cn2)CC(C)C1(O)c1ccc(F)cc1 (stereo not drawn) [Example 45] | 44.4 | 66.1 | < 7
C[C@@H]1CN(C(=O)[C@@H]2CN(c3ccc(C#N)nn3)C[C@H]2c2ccc(C#N)cn2)C[C@H](C)[C@@]1(O)c1ccc(F)cc1 [Example 46] | 15 | 50.8 | < 7

More lines, now with the values ahead:

EC50 [1] [nM] | EC50 [2] [nM] | microsomal CLint at 1 μM [3] [µL/min/mg] | Structure (SMILES)
4.75 | 185 | < 15.5 | CC1CN(C(=O)C2CN(c3ccc(=O)n(C)n3)CC2c2ccc(Cl)cn2)CC(C)C1(O)c1ccc(Cl)cc1 (stereo not drawn) [Example 23]
4.54 | 390 | 51 | CC1CN(C(=O)C2CN(c3ccc(=O)[nH]n3)CC2c2ccc(Cl)cn2)CC(C)C1(O)c1ccccc1 (stereo not drawn) [Example 27]
24.4 | 938 | 33 | C[C@@H]1CN(C(=O)[C@@H]2CN(c3ccc(=O)[nH]n3)C[C@H]2c2ccc(Cl)cn2)C[C@H](C)[C@@]1(O)c1ccccn1 [Example 28]
5.77 | 61.5 | 141 | CC1CN(C(=O)C2CN(c3ccc(C#N)nn3)CC2c2ccc(Cl)cn2)CC(C)C1(O)c1ccccn1 (stereo not drawn) [Example 30]
22.9 | 410 | 188 | C[C@@H]1CN(C(=O)[C@@H]2CN(c3ccc(Cl)nn3)C[C@H]2c2ccc(Cl)cn2)C[C@H](C)[C@@]1(O)c1ccccn1 [Example 31]
655 | > 33300 | 21 | COc1ccc([C@@H]2CN(c3ccc(=O)[nH]n3)C[C@H]2C(=O)N2C[C@@H](C)[C@](O)(c3ccc(Cl)cn3)[C@@H](C)C2)nc1 [Example 41]
